This note sets out measurements from US20110150873A1, “ANTI-INFLAMMATORY COMPOSITIONS AND COMBINATIONS” (CAMBRIDGE ENTERPRISE LIMITED, priority 2007, published 2011).

Entries after “also recorded” stand apart in the source; their conditions may differ.

For one data set, the system named is LPS-induced serum TNF-α. As to the kind of experiment: sub-lethal LPS-induced endotoxemia assay. To be noted: for % Inhibition of LPS-induced serum TNF-α, Mean: oral route, six mice. Format: in vivo, adult female CD-1 mice. The text has this: In this assay, mice are given a non-specific pro-inflammatory challenge using bacterial endotoxin (LPS), and the extent of the systemic inflammatory response (measured by serum levels of the central pro-inflammatory cytokine TNF-α, which is essentially absent from the blood under normal conditions, but is rapidly elevated in response to a wide range of inflammatory stimuli). We have selected this model, even though it is not, itself, a particularly close model of any human inflammatory disease condition, because TNF-α is known to be important in very many diseases (including rheumatoid arthritis, autoimmune disorders, Crohn's Disease, atherosclerosis, asthma and many more). Consequently, agents which suppress TNF-α production are already used clinically (e.g. etanercept (Enbrel™) and other anti-TNF-α antibody products, such as infliximab (Remicade™) and adalimumab (Humira™)) to treat a wide range of such diseases.
Mice (adult female CD-1 mice in groups of 6) were pretreated with various doses of each compound, either by the subcutaneous route 30 mins prior to LPS challenge, or by the oral route (via gavage) 60 mins prior to LPS. The mice were then challenged with an intraperitoneal injection of 750 μg of bacterial LPS and sacrificed 2 hours later. Serum was prepared from a terminal bleed by cardiac puncture, and the concentration of TNF-α determined by ELISA (R&D Systems). In each experiment, a group of 6 mice receive no LPS to act as a negative control, and a second group receive only LPS (with no candidate inhibitor). The level of TNF-α in serum from these animals which received LPS without drug pre-treatment is arbitrarily set to 100% (and is typically of the order of 6,000 pg/ml, compared with levels of <10 pg/ml among the negative control group, which received no LPS).

Data set [1] has as its system serum growth hormone (GH). As to the kind of experiment: ovalbumin-sensitised rat model of asthma: serum growth hormone ELISA (side-effect measure). The format is in vivo, Brown Norway rats. The method, then: (§1) Briefly, adult Brown Norway rats (200-300 g body weight; n=10 per group) are sensitised by a single interperitoneal injection of 0.1 mg Ovalbumin on day 0. Each rat then receives an intratracheal challenge with a solution of 1% ovalbumin (w/v) on day 8, and with 2% ovalbumin (w/v) on days 15, 18 and 21. The animals are then sacrificed 3 hours after the final challenge on day 21. Note that ovalbumin (Sigma; purest available grade) can be made endotoxin-free by passage over EndoTrap Red columns (purchased from Cambrex; used in accordance with the manufacturer's instructions), and the endotoxin level confirmed as <5 EU/mg protein using the LAL assay (QCL-1000; Cambrex; performed in accordance with the manufacturer's instructions; 1 mg of standard endotoxin contains ˜900,000 EU/mg). This ensures that the lung inflammation response results from the allergic response to the ovalbumin protein, rather than from unintended LPS stimulation which occurs even with the highest purity grade commercial ovalbumin preparations, and therefore ensures the model more closely represents the underlying molecular pathology of human asthma.
One group of mice (acting as a baseline control) receives no ovalbumin challenges, but are otherwise treated identically. A second group (positive control) receives the challenges but no drug treatment. Further groups are treated identically, but receive daily dosage with: (a) (S)-3-(2′,2′-dimethylpropanoylamino)-tetrahydropyridin-2-one (B′) at a dose of either 0.3 mg/kg or 0.03 mg/kg via oral gavage from day 8 until day 21, with dosage being given 1 hr prior to any subsequent challenge with ovalbumin made on the same day. […]
Serum is also prepared from a terminal bleed, and levels of GH are measured using a commercially available ELISA (Diagnostic Systems Laboratories, Inc; DSLabs) in accordance with the manufacturer's instructions.
A general note: In an ELISA, binding on a coated surface is turned into a signal by an enzyme label.

Data set [2] has as its system Th1/Th2 polarisation axis. As to the kind of experiment: ovalbumin-sensitised rat model of asthma: splenocyte Th1/Th2 ratio by flow cytometry. The format is in vivo, Brown Norway rats. To be noted: low dose B′ (0.03 mg/kg). The method, then: as §1, with “asthma. […]” for “asthma.”
The spleen is also removed from each mouse and placed in RPMI+10% FCS+antibiotics. […] The resulting cell suspensions are then centrifuged (328 g; 5 mins) and washed in RPMI+10% FCS+antibiotics, before being resuspended in fresh media and counted using a haemocytometer. […]
Background: Flow cytometry measures light scatter and fluorescence of single cells or particles in a stream.

In data set [3] the test system is leukocyte recruitment into the lung. As to the kind of experiment: ovalbumin-sensitised rat model of asthma: total BAL leukocyte count. The format is in vivo, Brown Norway rats. To be noted: low dose alone: 0.03 mg/kg B′ or 0.01 mg/kg DMX, daily oral. The method, then:
as §1, with “This ensures that the lung inflammation response results from the allergic response to the ovalbumin protein, rather than from unintended LPS stimulation which occurs even with the highest purity grade commercial ovalbumin preparations, and therefore ensures the model more closely represents the underlying molecular pathology of human asthma.” left out
On sacrifice, total lung leukocyate recruitment is assessed by performing a broncheoalveolar lavage (BAL) using 4 lots of 3 ml sterile phosphate-buffered saline introduced through a tracheal cannula. For each animal, the BAL washes are combined, and the total cell population counted (using a haemocytometer).

As for (S)-3-(adamantylamino)-caprolactam [B], the “% Inhibition of LPS-induced serum TNF-α, Mean” value is reported as 34% with LPS-induced serum TNF-α (Experiment 1, B 3 × 10^−6 mg); 15% with LPS-induced serum TNF-α (Experiment 1); 54% in the data set on LPS-induced serum TNF-α (Experiment 2, B 3 × 10^−6 mg); 34% in the data set on LPS-induced serum TNF-α (Experiment 2). Besides, in the data set on LPS-induced serum TNF-α (administered separately: 0.3 μg per mouse DMX or 0.1 μg/mouse B), the “anti-inflammatory effect on the TNF-α response” value is “minor anti-inflammatory effect which was not statistically significant in every experiment”.

For the molecule `C[C@@H]1C[C@H]2[C@@H]3CCC4=CC(=O)C=C[C@]4(C)[C@@]3(F)[C@@H](O)C[C@]2(C)[C@@]1(O)C(=O)CO` [DMX, Dexamethasone, reference compound], the “suppression of serum GH levels” value in data set [1] (high dose DMX (1 mg/kg)) was ≤ 80%; in data set [1] (low dose DMX (0.01 mg/kg)), “approximately 10%”. For the same molecule, the “% Inhibition of LPS-induced serum TNF-α, Mean” value in the data set on LPS-induced serum TNF-α (Experiment 1, DMX 3 × 10^−7 mg) is listed as 19%; in the data set on LPS-induced serum TNF-α (Experiment 2, DMX 3 × 10^−7 mg), 37%.

In the case of `CC(C)(C)C(=O)N[C@H]1CCCNC1=O` [B′, (S)-3-(2′,2′-dimethylpropanoylamino)-tetrahydropyridin-2-one], the “significant suppression of serum GH levels” value in data set [1] (B′ alone) is reported as “not”. In addition, in data set [2], the “re-balancing of the Th1/Th2 axis” value is listed as “statistically significant Th1 shift”. In addition, in data set [3], the “effect on leukocyte accumulation in the lung” value was “ineffective; also recorded: neither compound, when administered alone, has a statistically significant effect”.
